Numbers after ± are expanded uncertainties.
Conditions: Liquid, Bellows volumetry

CCCCn1cc[n+](C)c1.F[P-](F)(F)(F)(F)F [1-butyl-3-methylimidazolium hexafluorophosphate]
mass density [kg/m3]
Conditions | 312.8 K | 332.6 K | 353.2 K | 372.7 K | 392.8 K | 412.8 K | 432.6 K | 452.5 K | 472.3 K
100 kPa | 1352 ± 4 | – | – | – | – | – | – | – | –
10000 kPa | 1358 ± 4 | 1342 ± 3 | 1325 ± 3 | 1310 ± 3 | 1299 ± 3 | 1284 ± 3 | 1269 ± 3 | 1254 ± 3 | 1240 ± 3
20000 kPa | 1363 ± 4 | 1347 ± 4 | 1332 ± 3 | 1317 ± 3 | 1305 ± 3 | 1290 ± 3 | 1276 ± 3 | 1262 ± 3 | 1248 ± 3
30000 kPa | 1368 ± 4 | 1353 ± 4 | 1338 ± 3 | 1323 ± 3 | 1311 ± 3 | 1297 ± 3 | 1283 ± 3 | 1269 ± 3 | 1256 ± 3
40000 kPa | 1373 ± 4 | 1358 ± 4 | 1343 ± 3 | 1329 ± 3 | 1317 ± 3 | 1303 ± 3 | 1290 ± 3 | 1276 ± 3 | 1263 ± 3
50000 kPa | 1378 ± 4 | 1363 ± 4 | 1349 ± 4 | 1334 ± 3 | 1323 ± 3 | 1309 ± 3 | 1296 ± 3 | 1283 ± 3 | 1270 ± 3
60000 kPa | 1383 ± 4 | 1368 ± 4 | 1354 ± 4 | 1339 ± 3 | 1329 ± 3 | 1315 ± 3 | 1302 ± 3 | 1289 ± 3 | 1276 ± 3
70000 kPa | 1388 ± 4 | 1373 ± 4 | 1359 ± 4 | 1345 ± 4 | 1334 ± 3 | 1321 ± 3 | 1308 ± 3 | 1295 ± 3 | 1282 ± 3
80000 kPa | 1392 ± 4 | 1378 ± 4 | 1364 ± 4 | 1350 ± 4 | 1339 ± 3 | 1326 ± 3 | 1313 ± 3 | 1301 ± 3 | 1289 ± 3
90000 kPa | 1396 ± 4 | 1382 ± 4 | 1368 ± 4 | 1355 ± 4 | 1344 ± 4 | 1331 ± 3 | 1319 ± 3 | 1306 ± 3 | 1294 ± 3
100000 kPa | 1400 ± 4 | 1387 ± 4 | 1373 ± 4 | 1360 ± 4 | 1349 ± 4 | 1336 ± 3 | 1324 ± 3 | 1312 ± 3 | 1300 ± 3
110000 kPa | 1405 ± 4 | 1391 ± 4 | 1377 ± 4 | 1364 ± 4 | 1354 ± 4 | 1341 ± 4 | 1329 ± 3 | 1317 ± 3 | 1305 ± 3
120000 kPa | 1409 ± 4 | 1395 ± 4 | 1382 ± 4 | 1369 ± 4 | 1359 ± 4 | 1346 ± 4 | 1334 ± 3 | 1322 ± 3 | 1311 ± 3
130000 kPa | 1412 ± 4 | 1399 ± 4 | 1386 ± 4 | 1373 ± 4 | 1363 ± 4 | 1351 ± 4 | 1339 ± 4 | 1327 ± 3 | 1316 ± 3
140000 kPa | 1416 ± 4 | 1403 ± 4 | 1390 ± 4 | 1377 ± 4 | 1367 ± 4 | 1355 ± 4 | 1343 ± 4 | 1332 ± 3 | 1320 ± 3
150000 kPa | 1420 ± 4 | 1407 ± 4 | 1394 ± 4 | 1381 ± 4 | 1372 ± 4 | 1360 ± 4 | 1348 ± 4 | 1336 ± 4 | 1325 ± 3
160000 kPa | 1424 ± 4 | 1411 ± 4 | 1398 ± 4 | 1385 ± 4 | 1376 ± 4 | 1364 ± 4 | 1352 ± 4 | 1341 ± 4 | 1330 ± 4
170000 kPa | 1427 ± 4 | 1415 ± 4 | 1402 ± 4 | 1389 ± 4 | 1380 ± 4 | 1368 ± 4 | 1357 ± 4 | 1345 ± 4 | 1334 ± 4
180000 kPa | 1431 ± 4 | 1418 ± 4 | 1405 ± 4 | 1393 ± 4 | 1384 ± 4 | 1372 ± 4 | 1361 ± 4 | 1350 ± 4 | 1339 ± 4
190000 kPa | 1435 ± 4 | 1422 ± 4 | 1409 ± 4 | 1397 ± 4 | 1388 ± 4 | 1376 ± 4 | 1365 ± 4 | 1354 ± 4 | 1343 ± 4
200000 kPa | 1438 ± 4 | 1425 ± 4 | 1413 ± 4 | 1401 ± 4 | 1392 ± 4 | 1380 ± 4 | 1369 ± 4 | 1358 ± 4 | 1347 ± 4

CCCCCCCCOS(=O)(=O)[O-].CCCCn1cc[n+](C)c1 [1-butyl-3-methylimidazolium octyl sulfate]
mass density [kg/m3]
Conditions | 312.9 K | 332.8 K | 352.8 K | 373 K | 393.1 K | 413 K | 432.9 K | 452.7 K | 472.6 K
100 kPa | 1060 ± 6 | – | – | – | – | – | – | – | –
10000 kPa | 1065 ± 6 | 1052 ± 6 | 1040 ± 6 | 1028 ± 6 | 1016 ± 6 | 1004 ± 5 | 992 ± 5 | 978 ± 5 | 964 ± 5
20000 kPa | 1070 ± 6 | 1058 ± 6 | 1046 ± 6 | 1034 ± 6 | 1023 ± 6 | 1011 ± 6 | 999 ± 5 | 985 ± 5 | 972 ± 5
30000 kPa | 1075 ± 6 | 1063 ± 6 | 1051 ± 6 | 1040 ± 6 | 1028 ± 6 | 1017 ± 6 | 1006 ± 5 | 992 ± 5 | 980 ± 5
40000 kPa | 1080 ± 6 | 1068 ± 6 | 1056 ± 6 | 1045 ± 6 | 1034 ± 6 | 1023 ± 6 | 1012 ± 6 | 999 ± 5 | 987 ± 5
50000 kPa | 1084 ± 6 | 1073 ± 6 | 1061 ± 6 | 1050 ± 6 | 1039 ± 6 | 1029 ± 6 | 1018 ± 6 | 1005 ± 5 | 993 ± 5
60000 kPa | 1091 ± 6 | 1077 ± 6 | 1066 ± 6 | 1055 ± 6 | 1045 ± 6 | 1034 ± 6 | 1023 ± 6 | 1011 ± 6 | 999 ± 5
70000 kPa | 1093 ± 6 | 1081 ± 6 | 1070 ± 6 | 1060 ± 6 | 1049 ± 6 | 1039 ± 6 | 1029 ± 6 | 1017 ± 6 | 1005 ± 5
80000 kPa | 1097 ± 6 | 1085 ± 6 | 1075 ± 6 | 1064 ± 6 | 1054 ± 6 | 1044 ± 6 | 1034 ± 6 | 1022 ± 6 | 1011 ± 6
90000 kPa | 1096 ± 6 | 1089 ± 6 | 1079 ± 6 | 1068 ± 6 | 1058 ± 6 | 1049 ± 6 | 1038 ± 6 | 1027 ± 6 | 1016 ± 6
100000 kPa | – | 1093 ± 6 | 1083 ± 6 | 1073 ± 6 | 1063 ± 6 | 1053 ± 6 | 1043 ± 6 | 1032 ± 6 | 1021 ± 6
110000 kPa | – | 1097 ± 6 | 1087 ± 6 | 1077 ± 6 | 1067 ± 6 | 1057 ± 6 | 1048 ± 6 | 1036 ± 6 | 1026 ± 6
120000 kPa | – | 1101 ± 7 | 1090 ± 6 | 1080 ± 6 | 1071 ± 6 | 1062 ± 6 | 1052 ± 6 | 1041 ± 6 | 1030 ± 6
130000 kPa | – | 1104 ± 7 | 1094 ± 6 | 1084 ± 6 | 1075 ± 6 | 1066 ± 6 | 1056 ± 6 | 1045 ± 6 | 1035 ± 6
140000 kPa | – | 1107 ± 7 | 1097 ± 6 | 1088 ± 6 | 1078 ± 6 | 1069 ± 6 | 1060 ± 6 | 1049 ± 6 | 1039 ± 6
150000 kPa | – | 1111 ± 7 | 1101 ± 7 | 1091 ± 6 | 1082 ± 6 | 1073 ± 6 | 1064 ± 6 | 1053 ± 6 | 1043 ± 6
160000 kPa | – | 1114 ± 7 | 1104 ± 7 | 1095 ± 6 | 1086 ± 6 | 1077 ± 6 | 1068 ± 6 | 1057 ± 6 | 1047 ± 6
170000 kPa | – | 1117 ± 7 | 1107 ± 7 | 1098 ± 7 | 1089 ± 6 | 1080 ± 6 | 1071 ± 6 | 1061 ± 6 | 1051 ± 6
180000 kPa | – | 1120 ± 7 | 1111 ± 7 | 1102 ± 7 | 1093 ± 6 | 1084 ± 6 | 1075 ± 6 | 1065 ± 6 | 1055 ± 6
190000 kPa | – | 1123 ± 7 | 1114 ± 7 | 1105 ± 7 | 1096 ± 7 | 1087 ± 6 | 1078 ± 6 | 1068 ± 6 | 1059 ± 6
200000 kPa | – | 1126 ± 7 | 1117 ± 7 | 1108 ± 7 | 1099 ± 7 | 1091 ± 6 | 1082 ± 6 | 1072 ± 6 | 1062 ± 6
